Data as given in ChEMBL document CHEMBL4725221, “Thiazoles, Their Benzofused Systems, and Thiazolidinone Derivatives: Versatile and Promising Tools to Combat Antibiotic Resistance” (J Med Chem, 2020).
Values after ≈ are worked out from the molar mass of the structure shown. Values belong to the compound of their own block, whether it stands above or below them.

Key:
[1] = tested on: Staphylococcus aureus; test: Antibacterial activity against methicillin resistant Staphylococcus aureus 090 by NCCLS protocol based broth microdilution method; type: functional
[2] = tested on: Staphylococcus aureus; test: Antibacterial activity against Staphylococcus aureus MTCC 3160 after 24 hrs; type: functional
[3] = tested on: Bacillus subtilis; test: Antibacterial activity against Bacillus subtilis MTCC 441 after 24 hrs; type: functional
[4] = tested on: Escherichia coli; test: Antibacterial activity against Escherichia coli MTCC 443 after 24 hrs; type: functional
[5] = tested on: Enterococcus faecalis; test: Antibacterial activity against Enterococcus faecalis ATCC 19433 by NCCLS protocol based broth microdilution method
[6] = tested on: Staphylococcus aureus; test: Antibacterial activity against Staphylococcus aureus ATCC 29213 after 20 hrs by cup plate method; type: functional
[7] = tested on: Escherichia coli; test: Antibacterial activity against Escherichia coli ATCC 25922 after 20 hrs by cup plate method; type: functional
[8] = tested on: Staphylococcus aureus; test: Antibacterial activity against Staphylococcus aureus ATCC 29213 by NCCLS protocol based broth microdilution method; type: functional
[9] = tested on: Staphylococcus aureus; test: Antibacterial activity against Staphylococcus aureus; type: functional
[10] = tested on: Bacillus subtilis; test: Antibacterial activity against Bacillus subtilis; type: functional
[11] = tested on: Pseudomonas aeruginosa; test: Antibacterial activity against Pseudomonas aeruginosa; type: functional
[12] = tested on: Klebsiella pneumoniae; test: Antibacterial activity against Klebsiella pneumoniae; type: functional
[13] = tested on: Staphylococcus aureus; test: Antibacterial activity against Staphylococcus aureus ATCC 25923 by CLSI protocol based microdilution method; type: functional, organism-based
[14] = tested on: Staphylococcus aureus; test: Antibacterial activity against Staphylococcus aureus ATCC 6538 by CLSI protocol based microdilution method; type: functional, organism-based
[15] = tested on: Pseudomonas aeruginosa; test: Antibacterial activity against Pseudomonas aeruginosa ATCC 15442 by CLSI protocol based cup-plate agar diffusion method; type: functional
[16] = tested on: Enterococcus faecalis; test: Antibacterial activity against Enterococcus faecalis ATCC 29212 after 20 hrs by cup plate method; type: functional
[17] = tested on: Bacillus subtilis; test: Antibacterial activity against Bacillus subtilis ATCC 10400 after 20 hrs by cup plate method; type: functional

Structure (SMILES): COc1ccc(/C=N/Nc2nc3cccc(C)c3s2)c(OC)c1
- MIC [1]: 22 µg/mL (≈ 67.2 µM)

- MIC [2]: 12.6 µg/mL (≈ 34 µM)
- MIC [3]: 12.6 µg/mL (≈ 34 µM)
- MIC [4]: 12.6 µg/mL (≈ 34 µM)
Structure (SMILES): Cc1ccc(C2SCC(=O)N2NC(=O)CNC(=O)c2ccccc2)cc1 (configuration not stated)

- MIC [5]: 16 µg/mL
Structure (SMILES): Cl.Cl.Nc1ccc2sc(NC(=O)c3sc4cc(N)ccc4c3Cl)nc2c1

- MIC [6]: 64 µg/mL (≈ 175 µM)
- MIC [7]: 32 µg/mL (≈ 87.3 µM)
Structure (SMILES): COc1ccc(-c2n[nH]c(N3C(=O)CS[C@H]3c3ccc(C)cc3)n2)cc1

- MIC [5]: 16 µg/mL
Structure (SMILES): Cl.Nc1ccc2c(Cl)c(C(=O)Nc3nc4ccccc4s3)sc2c1

- MIC [5]: 8 µg/mL
Structure (SMILES): Cl.Nc1ccc2sc(NC(=O)c3sc4ccccc4c3Cl)nc2c1

- MIC [2]: 25.2 µg/mL (≈ 63 µM)
- MIC [3]: 12.4 µg/mL (≈ 31 µM)
- MIC [4]: 25.2 µg/mL (≈ 63 µM)
Structure (SMILES): O=C(CNC(=O)c1ccccc1)NN1C(=O)CSC1c1cccc([N+](=O)[O-])c1 (configuration not stated)

- MIC [2]: 6.51 µg/mL (≈ 15 µM)
- MIC [3]: 47.8 µg/mL (≈ 110 µM)
- MIC [4]: 12.2 µg/mL (≈ 28 µM)
Structure (SMILES): O=C(CNC(=O)c1ccccc1)NN1C(=O)CSC1c1ccc(Br)cc1 (configuration not stated)

- MIC [6]: 128 µg/mL (≈ 346 µM)
- MIC [7]: 64 µg/mL (≈ 173 µM)
Structure (SMILES): COc1ccc(-c2n[nH]c(N3C(=O)CS[C@H]3c3ccc(F)cc3)n2)cc1

- MIC [2]: 12.5 µg/mL (≈ 32.1 µM)
- MIC [3]: 6.24 µg/mL (≈ 16 µM)
- MIC [4]: 6.24 µg/mL (≈ 16 µM)
Structure (SMILES): O=C(CNC(=O)c1ccccc1)NN1C(=O)CSC1c1ccccc1Cl (configuration not stated)

- MIC [8]: 3.12 µg/mL (≈ 13.3 µM)
Structure (SMILES): FC(F)(F)c1ccc2nc(S)sc2c1

- MIC [9]: 25 µg/mL (≈ 51.9 µM)
- MIC [10]: 25 µg/mL (≈ 51.9 µM)
- MIC [11]: 6.25 µg/mL (≈ 13 µM)
- MIC [12]: 12.5 µg/mL (≈ 26 µM)
Structure (SMILES): O=[N+]([O-])c1ccc(-c2cc(-c3cc4ccccc4[nH]3)n(-c3nc(-c4ccc(F)cc4)cs3)n2)cc1

- IC50 [13]: 4.7 µg/mL (≈ 13.1 µM)
- IC50 [14]: 9.7 µg/mL (≈ 27.1 µM)
- MIC [15]: 22.7 µg/mL (≈ 63.3 µM)
Structure (SMILES): NCCn1cc(-c2nc(-c3c[nH]c4ccccc34)cs2)c2ccccc21

- IC50 [13]: 0.79 µg/mL (≈ 1.75 µM)
- IC50 [14]: 9.4 µg/mL (≈ 20.8 µM)
- MIC [15]: 4.4 µg/mL (≈ 9.73 µM)
Structure (SMILES): COCCn1cc(-c2nc(-c3c[nH]c4ccccc34)cs2)c2cc(Br)ccc21

- IC50 [13]: 0.5 µg/mL (≈ 1.28 µM)
- IC50 [14]: 5.2 µg/mL (≈ 13.3 µM)
- MIC [15]: 3.9 µg/mL (≈ 9.99 µM)
Structure (SMILES): Cn1cc(-c2csc(-c3cn(CCN)c4ccc(F)cc34)n2)c2ccccc21

- MIC [6]: 16 µg/mL (≈ 40.3 µM)
- MIC [7]: 32 µg/mL (≈ 80.5 µM)
Structure (SMILES): COc1ccc(-c2n[nH]c(N3C(=O)CS[C@H]3c3ccc([N+](=O)[O-])cc3)n2)cc1

- MIC [9]: 50 µg/mL (≈ 110 µM)
- MIC [10]: 50 µg/mL (≈ 110 µM)
- MIC [11]: 25 µg/mL (≈ 55 µM)
- MIC [12]: 25 µg/mL (≈ 55 µM)
Structure (SMILES): Fc1ccc(-c2csc(-n3nc(-c4ccc(F)cc4)cc3-c3cc4ccccc4[nH]3)n2)cc1

- IC50 [13]: 0.95 µg/mL (≈ 2.04 µM)
- IC50 [14]: 11.2 µg/mL (≈ 24 µM)
- MIC [15]: 19.1 µg/mL (≈ 41 µM)
Structure (SMILES): COCCn1cc(-c2nc(-c3cn(C)c4ccccc34)cs2)c2cc(Br)ccc21

Structure (SMILES): Cc1cccc2nc(N/N=C/c3ccc(O)cc3O)sc12
- MIC [1]: 20 µg/mL (≈ 66.8 µM)

- IC50 [13]: 4.4 µg/mL (≈ 10.1 µM)
- IC50 [14]: 3.3 µg/mL (≈ 7.55 µM)
- MIC [15]: 7.8 µg/mL (≈ 17.8 µM)
Structure (SMILES): NCCn1cc(-c2nc(-c3c[nH]c4ccccc34)cs2)c2cc(Br)ccc21

- MIC [8]: 12.5 µg/mL (≈ 58.9 µM)
Structure (SMILES): O=[N+]([O-])c1ccc2nc(S)sc2c1

- MIC [5]: 8 µg/mL (≈ 22.2 µM)
Structure (SMILES): Nc1ccc2c(Cl)c(C(=O)Nc3nc4ccccc4s3)sc2c1

- MIC [5]: 16 µg/mL (≈ 41 µM)
Structure (SMILES): O=C(Nc1nc2ccccc2s1)c1sc2cc([N+](=O)[O-])ccc2c1Cl

- MIC [6]: 8 µg/mL (≈ 20.7 µM)
- MIC [16]: 16 µg/mL (≈ 41.4 µM)
- MIC [17]: 16 µg/mL (≈ 41.4 µM)
- MIC [7]: 16 µg/mL (≈ 41.4 µM)
Structure (SMILES): COc1ccc(-c2n[nH]c(N3C(=O)CS[C@H]3c3ccc(Cl)cc3)n2)cc1

- IC50 [13]: 1.5 µg/mL (≈ 3.98 µM)
- IC50 [14]: 6.3 µg/mL (≈ 16.7 µM)
- MIC [15]: 4.5 µg/mL (≈ 12 µM)
Structure (SMILES): NCCn1cc(-c2nc(-c3c[nH]c4ccccc34)cs2)c2cc(F)ccc21

- MIC [2]: 12.4 µg/mL (≈ 29 µM)
- MIC [3]: 12.4 µg/mL (≈ 29 µM)
- MIC [4]: 3.07 µg/mL (≈ 7.2 µM)
Structure (SMILES): CCN(CC)c1ccc(C2SCC(=O)N2NC(=O)CNC(=O)c2ccccc2)cc1 (configuration not stated)

Structure (SMILES): Cc1cccc2nc(N/N=C/c3cc(O)c(O)c(O)c3)sc12
- MIC [1]: 18 µg/mL (≈ 57.1 µM)

- MIC [6]: 128 µg/mL (≈ 335 µM)
- MIC [7]: 6 µg/mL (≈ 15.7 µM)
Structure (SMILES): COc1ccc(-c2n[nH]c(N3C(=O)CS[C@H]3c3ccc(OC)cc3)n2)cc1

Structure (SMILES): O=C(N[C@H](CO)[C@H](O)c1ccc([N+](=O)[O-])cc1)C(Cl)Cl [CHLORAMPHENICOL]
- MIC [9]: 6.25 µg/mL (≈ 19.3 µM)
- MIC [10]: 6.25 µg/mL (≈ 19.3 µM)
- MIC [11]: 6.25 µg/mL (≈ 19.3 µM)
- MIC [12]: 12.5 µg/mL (≈ 38.7 µM)
